Measurements reported in US20250281479A1, “TREATMENT OF CAVERNOUS ANGIOMAS WITH A 4-SUBSTITUTED PIPERIDINE DERIVATIVE” (Neurelis, Inc., priority 2024, published 2025).

Legend:
[1] = tissue distribution and excretion; type: in vivo
Method: (§1) Exposure to NRL-2017 was similar or greater (up to 5-fold) than that to NRL-1049 in rats when dosed once a day (QD). In monkeys, exposure to NRL-2017 was also greater (up to 33-fold) than that to NRL-1049. When rats were dosed twice a day (BID) for 14 days, there was a decrease in formation of NRL-2017 with exposure to NRL-2017 lower than that of NRL-1049 (ratio as low as 0.06). […] NRL-1049 bound to human serum albumin and human alpha1-acid glycoprotein. […] There was also inhibition of P-glycoprotein (P-gp) (only CACO-2 cells), organic anion transporting polypeptides (OATP) OATP1B1, OATP1B3 and OAT3 (IC50, >100 μM), but no effect on P-gp (MDCK2 cells), breast cancer resistance protein (BCRP), bile salt export pump (BSEP), or MATE2-K. NRL-1049 is a substrate for P-gp, not BCRP. […] This conclusion will be revisited when human pharmacokinetic (PK) data becomes available.

plasma protein binding = type: in vitro ADME, mouse; conditions: range over mouse, rat, dog, monkey, minipig and human plasma; read-out: % free drug
Method: as §1

human serum albumin = human serum albumin (Homo sapiens, UniProt P02768); experiment: binding to human serum albumin; type: in vitro ADME
Sequence of human serum albumin (P02768 25-609): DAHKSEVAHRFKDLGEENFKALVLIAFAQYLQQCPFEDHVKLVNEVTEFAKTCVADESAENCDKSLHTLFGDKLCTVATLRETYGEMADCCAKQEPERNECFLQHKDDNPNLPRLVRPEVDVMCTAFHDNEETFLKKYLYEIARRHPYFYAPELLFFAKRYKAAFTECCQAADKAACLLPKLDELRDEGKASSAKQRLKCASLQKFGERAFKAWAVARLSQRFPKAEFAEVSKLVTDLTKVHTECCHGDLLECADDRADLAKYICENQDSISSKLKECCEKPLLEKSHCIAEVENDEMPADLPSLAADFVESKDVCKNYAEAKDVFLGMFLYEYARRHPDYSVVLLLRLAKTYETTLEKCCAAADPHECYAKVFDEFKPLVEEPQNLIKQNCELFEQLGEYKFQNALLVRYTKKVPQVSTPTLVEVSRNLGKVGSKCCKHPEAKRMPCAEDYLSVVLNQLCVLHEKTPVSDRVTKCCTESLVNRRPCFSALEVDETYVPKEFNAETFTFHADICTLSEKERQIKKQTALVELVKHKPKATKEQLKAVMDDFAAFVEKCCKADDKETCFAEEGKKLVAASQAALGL
Method: as §1

cytochrome P450 (CYP) = experiment: metabolite or time-dependent CYP inhibition; type: in vitro ADME
Method: as §1

MATE1 = MATE1 (Homo sapiens, UniProt Q96FL8); experiment: transporter inhibition; type: in vitro ADME; conditions: one range printed for OAT1, OCT1, OCT2 and MATE1 together
Method: as §1

OAT1 = OAT1 (Homo sapiens, UniProt Q4U2R8); experiment: transporter inhibition; type: in vitro ADME; conditions: one range printed for OAT1, OCT1, OCT2 and MATE1 together
Method: as §1

OAT3 = OAT3 (Homo sapiens, UniProt Q8TCC7); experiment: transporter inhibition; type: in vitro ADME
Method: as §1

OATP1B1 = OATP1B1 (Homo sapiens, UniProt Q9Y6L6); experiment: transporter inhibition; type: in vitro ADME
Sequence of OATP1B1 (Q9Y6L6 whole entry): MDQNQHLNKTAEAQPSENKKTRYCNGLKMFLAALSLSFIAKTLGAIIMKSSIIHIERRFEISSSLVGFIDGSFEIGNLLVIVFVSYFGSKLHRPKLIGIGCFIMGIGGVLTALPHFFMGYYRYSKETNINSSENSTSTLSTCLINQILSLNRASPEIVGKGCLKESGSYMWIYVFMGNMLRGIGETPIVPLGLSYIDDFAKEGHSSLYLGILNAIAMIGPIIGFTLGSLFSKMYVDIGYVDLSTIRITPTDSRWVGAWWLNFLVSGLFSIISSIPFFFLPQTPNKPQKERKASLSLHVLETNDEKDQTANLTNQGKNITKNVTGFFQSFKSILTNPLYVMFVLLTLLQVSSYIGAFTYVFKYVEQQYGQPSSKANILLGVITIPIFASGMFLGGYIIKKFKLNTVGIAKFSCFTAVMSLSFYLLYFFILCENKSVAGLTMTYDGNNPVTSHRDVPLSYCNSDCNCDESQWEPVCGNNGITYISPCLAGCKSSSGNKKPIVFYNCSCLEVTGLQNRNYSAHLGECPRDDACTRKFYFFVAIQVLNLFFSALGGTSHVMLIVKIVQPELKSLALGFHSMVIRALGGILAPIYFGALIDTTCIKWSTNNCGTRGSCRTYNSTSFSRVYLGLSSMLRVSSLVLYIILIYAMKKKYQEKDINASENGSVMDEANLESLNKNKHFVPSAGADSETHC
Method: as §1

OATP1B3 = OATP1B3 (Homo sapiens, UniProt Q9NPD5); experiment: transporter inhibition; type: in vitro ADME
Method: as §1

OCT1 = OCT1 (Homo sapiens, UniProt O15245); experiment: transporter inhibition; type: in vitro ADME; conditions: one range printed for OAT1, OCT1, OCT2 and MATE1 together
Method: as §1

OCT2 = OCT2 (Homo sapiens, UniProt O15244); experiment: transporter inhibition; type: in vitro ADME; conditions: one range printed for OAT1, OCT1, OCT2 and MATE1 together
Sequence of OCT2 (O15244 whole entry): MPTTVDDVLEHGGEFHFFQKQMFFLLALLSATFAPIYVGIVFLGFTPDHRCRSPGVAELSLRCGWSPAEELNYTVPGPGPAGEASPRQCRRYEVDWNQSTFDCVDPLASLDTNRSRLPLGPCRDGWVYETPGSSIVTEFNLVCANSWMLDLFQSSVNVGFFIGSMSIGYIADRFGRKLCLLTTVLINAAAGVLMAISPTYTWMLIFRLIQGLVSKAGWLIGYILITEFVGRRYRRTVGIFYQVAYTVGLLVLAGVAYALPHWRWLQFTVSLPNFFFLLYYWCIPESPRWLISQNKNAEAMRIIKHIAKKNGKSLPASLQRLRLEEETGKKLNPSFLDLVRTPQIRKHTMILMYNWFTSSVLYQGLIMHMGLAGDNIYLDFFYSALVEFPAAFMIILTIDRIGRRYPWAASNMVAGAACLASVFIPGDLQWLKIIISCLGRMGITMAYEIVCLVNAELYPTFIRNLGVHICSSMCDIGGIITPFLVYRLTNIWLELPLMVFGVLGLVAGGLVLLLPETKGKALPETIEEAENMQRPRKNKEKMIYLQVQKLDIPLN
Method: as §1

[2] = biological target: T1, P-glycoprotein (P-gp) (only CACO-2 cells) (Homo sapiens, UniProt P08183); experiment: transporter inhibition; type: in vitro ADME
T1 construct: endogenous in cells; host or cells: CACO-2 cells
Method: as §1

P-gp (MDCK2 cells) = biological target: T2, P-gp (MDCK2 cells) (Homo sapiens, UniProt P08183); experiment: transporter inhibition; type: in vitro ADME
T2 construct: host or cells: MDCK2 cells
T2 sequence (P08183 whole entry): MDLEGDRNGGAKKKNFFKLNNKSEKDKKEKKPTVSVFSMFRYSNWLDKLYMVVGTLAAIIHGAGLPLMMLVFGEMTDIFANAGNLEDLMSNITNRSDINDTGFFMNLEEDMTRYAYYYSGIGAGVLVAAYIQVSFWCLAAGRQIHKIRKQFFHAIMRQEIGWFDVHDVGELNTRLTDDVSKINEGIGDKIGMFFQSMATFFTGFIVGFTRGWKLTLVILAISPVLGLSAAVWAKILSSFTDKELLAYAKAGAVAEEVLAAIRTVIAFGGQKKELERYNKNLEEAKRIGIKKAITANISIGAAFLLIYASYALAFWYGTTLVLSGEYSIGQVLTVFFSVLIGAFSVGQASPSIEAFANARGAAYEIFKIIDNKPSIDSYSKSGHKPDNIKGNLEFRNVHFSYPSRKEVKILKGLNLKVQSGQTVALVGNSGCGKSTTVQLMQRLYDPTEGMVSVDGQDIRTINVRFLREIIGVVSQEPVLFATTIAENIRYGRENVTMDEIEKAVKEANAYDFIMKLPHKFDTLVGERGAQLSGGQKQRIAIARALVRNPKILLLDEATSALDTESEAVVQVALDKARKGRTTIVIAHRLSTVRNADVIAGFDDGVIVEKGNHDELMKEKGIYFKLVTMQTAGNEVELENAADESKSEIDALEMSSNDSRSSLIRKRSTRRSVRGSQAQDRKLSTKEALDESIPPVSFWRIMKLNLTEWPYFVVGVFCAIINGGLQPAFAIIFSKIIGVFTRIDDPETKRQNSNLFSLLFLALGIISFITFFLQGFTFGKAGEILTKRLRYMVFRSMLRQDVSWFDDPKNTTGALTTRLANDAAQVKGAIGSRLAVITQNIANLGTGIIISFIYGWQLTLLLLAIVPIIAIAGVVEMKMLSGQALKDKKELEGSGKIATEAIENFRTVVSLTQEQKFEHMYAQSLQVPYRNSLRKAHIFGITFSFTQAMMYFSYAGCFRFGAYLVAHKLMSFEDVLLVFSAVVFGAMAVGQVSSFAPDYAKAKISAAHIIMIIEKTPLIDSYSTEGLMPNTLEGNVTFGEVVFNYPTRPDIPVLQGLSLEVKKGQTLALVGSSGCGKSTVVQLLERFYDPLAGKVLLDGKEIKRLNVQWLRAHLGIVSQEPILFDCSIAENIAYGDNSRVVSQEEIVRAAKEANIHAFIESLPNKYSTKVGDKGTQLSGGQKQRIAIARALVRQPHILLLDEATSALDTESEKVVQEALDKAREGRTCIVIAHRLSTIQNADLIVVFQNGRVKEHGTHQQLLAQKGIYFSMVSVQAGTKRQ
Method: as §1

[3] = biological target: bile salt export pump (BSEP) (Homo sapiens, UniProt O95342); experiment: transporter inhibition; type: in vitro ADME
Sequence of bile salt export pump (BSEP) (O95342 whole entry): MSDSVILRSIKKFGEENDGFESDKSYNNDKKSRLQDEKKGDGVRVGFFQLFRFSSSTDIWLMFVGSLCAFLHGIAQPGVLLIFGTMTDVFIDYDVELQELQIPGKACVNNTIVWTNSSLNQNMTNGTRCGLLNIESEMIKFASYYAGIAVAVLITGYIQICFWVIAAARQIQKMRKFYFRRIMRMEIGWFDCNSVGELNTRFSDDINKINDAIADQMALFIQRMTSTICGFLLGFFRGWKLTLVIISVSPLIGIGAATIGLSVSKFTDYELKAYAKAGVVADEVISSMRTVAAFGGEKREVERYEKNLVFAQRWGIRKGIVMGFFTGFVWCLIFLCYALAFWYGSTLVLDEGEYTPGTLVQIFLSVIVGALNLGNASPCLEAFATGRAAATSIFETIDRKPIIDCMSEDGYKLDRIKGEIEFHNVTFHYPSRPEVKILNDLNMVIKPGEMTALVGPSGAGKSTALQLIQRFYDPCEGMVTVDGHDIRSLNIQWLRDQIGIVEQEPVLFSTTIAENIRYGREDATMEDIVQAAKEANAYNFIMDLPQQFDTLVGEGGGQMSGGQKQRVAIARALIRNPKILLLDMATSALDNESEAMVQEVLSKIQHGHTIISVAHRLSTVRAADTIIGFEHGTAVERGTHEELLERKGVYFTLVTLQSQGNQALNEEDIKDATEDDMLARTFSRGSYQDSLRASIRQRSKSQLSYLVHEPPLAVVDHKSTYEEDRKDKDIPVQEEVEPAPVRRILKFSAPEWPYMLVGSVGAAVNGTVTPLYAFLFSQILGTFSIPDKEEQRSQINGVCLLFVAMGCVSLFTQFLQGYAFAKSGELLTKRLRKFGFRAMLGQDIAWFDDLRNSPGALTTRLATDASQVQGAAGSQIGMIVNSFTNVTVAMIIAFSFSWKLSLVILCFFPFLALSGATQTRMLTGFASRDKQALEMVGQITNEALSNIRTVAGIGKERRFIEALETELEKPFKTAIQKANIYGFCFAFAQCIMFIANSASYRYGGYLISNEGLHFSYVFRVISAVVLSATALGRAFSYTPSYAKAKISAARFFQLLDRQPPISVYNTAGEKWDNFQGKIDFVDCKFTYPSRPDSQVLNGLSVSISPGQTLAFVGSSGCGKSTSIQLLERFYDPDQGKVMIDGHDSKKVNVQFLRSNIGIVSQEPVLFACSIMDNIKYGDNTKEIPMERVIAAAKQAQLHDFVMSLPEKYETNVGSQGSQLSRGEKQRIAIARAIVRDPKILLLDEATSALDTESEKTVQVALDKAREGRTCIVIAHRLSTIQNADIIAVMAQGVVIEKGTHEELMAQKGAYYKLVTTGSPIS
Method: as §1

[4] = biological target: breast cancer resistance protein (BCRP) (Homo sapiens, UniProt Q9UNQ0); experiment: transporter inhibition; type: in vitro ADME
Sequence of breast cancer resistance protein (BCRP) (Q9UNQ0 whole entry): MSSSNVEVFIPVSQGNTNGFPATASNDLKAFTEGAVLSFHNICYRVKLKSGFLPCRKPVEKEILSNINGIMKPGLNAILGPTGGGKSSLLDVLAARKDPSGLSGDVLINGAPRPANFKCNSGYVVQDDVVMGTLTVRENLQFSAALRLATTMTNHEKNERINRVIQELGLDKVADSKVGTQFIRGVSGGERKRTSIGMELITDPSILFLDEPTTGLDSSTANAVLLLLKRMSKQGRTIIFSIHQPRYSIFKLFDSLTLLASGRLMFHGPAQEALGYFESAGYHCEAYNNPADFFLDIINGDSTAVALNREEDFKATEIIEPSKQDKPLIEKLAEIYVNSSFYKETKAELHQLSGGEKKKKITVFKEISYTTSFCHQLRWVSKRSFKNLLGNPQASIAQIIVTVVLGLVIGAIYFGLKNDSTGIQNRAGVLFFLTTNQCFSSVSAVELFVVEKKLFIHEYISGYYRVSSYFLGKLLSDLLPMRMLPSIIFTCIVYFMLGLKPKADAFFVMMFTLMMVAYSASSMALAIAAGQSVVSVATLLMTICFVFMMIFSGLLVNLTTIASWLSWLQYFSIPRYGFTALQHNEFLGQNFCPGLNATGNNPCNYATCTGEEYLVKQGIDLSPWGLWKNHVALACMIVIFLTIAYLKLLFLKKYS
Method: as §1

[5] = first-in-human single ascending dose and food-effect study, safety and tolerability; type: in vivo
Text: This was a first-in-human, single center, randomized, double-blind, placebo-controlled, single ascending dose (SAD) study, including a food-effect assessment, in healthy male and female subjects. Up to 44 subjects were included in the study.
The study consisted of 4 sequential cohorts of 8 subjects each (6 active and 2 placebo), randomly assigned to receive a single oral dose of NRL-1049 or matching-placebo under fasting state on Day 1 (See Table 2). In each cohort, a sentinel group of 2 subjects (1 active and 1 placebo) were dosed at least 24 hours prior to enrolling the remaining subjects of the cohort, contingent on the safety profile observed during sentinel dosing, as defined by medical judgment.
Subjects were admitted to the clinical research unit (CRU) on Day −1. On Day 1, following an overnight fast, subjects received a single oral dose of their assigned study treatment. Safety, PK, and exploratory biomarker assessments were performed prior to dosing and at assigned time points during study confinement. Subjects were permitted to leave the CRU following the completion of the 48-hour PK postdose sampling and safety assessments. A safety follow-up phone call was performed on Day 8 (±1 day).
Each dose cohort was separated by at least 7 days to review safety by the Data Safety Monitoring Board (DSMB) prior to a decision to proceed with the next higher dose cohort or stop the study.
Furthermore, a food-effect assessment was integrated into Cohort 3, in which a single oral 150 mg dose of NRL-1049 or placebo was administered to 12 subjects (10 active and 2 placebo) under fed state in Period 2 (refer to schedule of food-effect Cohort 3 in Table 3). After completion of Period 1 and a washout period of at least 14 days, Cohort 3 subjects repeated the screening procedures to ensure they still met the inclusion and exclusion criteria prior to readmission to the CRU for Period 2. Subjects dosed in Period 1 and who returned for Period 2 (a maximum of 6 active and 2 placebo) were administered the same single oral dose in Period 2 under fed state. In addition, at least 4 new subjects were enrolled in Period 2 only, in order to dose a total of 12 subjects (10 active and 2 placebo), in a 1:1 ratio of male to female. If a subject dosed in Period 1 was unable to return for Period 2, a new subject was enrolled to ensure dosing a total of 12 subjects in Period 2. Newly enrolled subjects only received the study drug in the fed state, and as such were not required to undergo Period 1 activities. There was no sentinel approach in Period 2.
The safety, PK, and exploratory biomarker assessments were performed prior to dosing and at assigned time points during study confinement. For the food-effect cohort, exploratory biomarker samples were collected in both periods. Subjects were discharged from the CRU following the completion of the 48-hour PK postdose sampling and safety assessments. A safety follow-up phone call was performed on Day 23 (±1 day).

C[C@@H](N)C1CCN(S(=O)(=O)c2cccc3cnccc23)CC1 [NRL-1049]
tissue distribution ([1]; brain, aorta, inferior vena cava): distributed to brain and vascular tissue | excretion ([1]; in vivo): excreted in urine | fraction unbound (plasma protein binding): 0.541 to 0.706 | binding to human serum albumin (human serum albumin): bound | metabolite or time-dependent inhibition (cytochrome P450 (CYP)): no metabolite or time-dependent inhibition | IC50 (MATE1): 8.54 to 66.2 µM | IC50 (OAT1): 8.54 to 66.2 µM | IC50 (OAT3): > 100 µM | IC50 (OATP1B1): > 100 µM | IC50 (OATP1B3): > 100 µM | IC50 (OCT1): 8.54 to 66.2 µM | IC50 (OCT2): 8.54 to 66.2 µM | IC50 [2]: > 100 µM | effect on transporter (P-gp (MDCK2 cells)): no effect | effect on transporter [3]: no effect | effect on transporter [4]: no effect | deaths or SAEs ([5]; Part 1 (SAD)): No deaths or SAEs | deaths or SAEs ([5]; Part 2): No deaths or SAEs | TEAEs of Grade 1/mild ([5]; both, human, in vivo): 57.1% | TEAEs of Grade 1 or Grade 2 ([5]; both, human, in vivo): 92.3% | TEAEs of Grade 2/moderate ([5]; both, human, in vivo): 42.9% | TEAEs deemed related to study treatment ([5]; both, human, in vivo, 8 days): 76.9% | TEAEs of Grade 1 ([5]; both, human, in vivo, 8 days): 30.8% | TEAEs of Grade 2 ([5]; both, human, in vivo, 8 days): 61.5% | subjects who experienced TEAEs ([5]; both, human, in vivo, 8 days): 28.1% | CS abnormal findings in laboratory parameters, vital signs, ECGs, physical examination, or cardiac telemetry ([5]; in vivo): No CS abnormal findings | blood pressure ([5]; in vivo): reduction of blood pressure | tolerability ([5]; in vivo, po): generally well tolerated | deaths, SAEs, Grade 4/5 TEAEs ([5]; overall): no deaths, SAEs, or Grade 4/5 TEAEs | MTD ([5]; single oral dose, levels between 150 and 250 mg not explored): 150 mg
